Results taken from paper PMC7265341, “Quantifying CDK inhibitor selectivity in live cells” (Nature Communications, 2020).
Where two headings read alike, the source gives them in different places.

Key:
[1] = target: CDK1/Cyclin E1 (Homo sapiens, UniProt P06493); assay: NanoBRET live-cell target engagement, CDK1-NanoLuc/Cyclin E1 in HEK-293; type: binding; conditions: CDK1/E1, read-out: Inhibition at 10µM (%)
[2] = target: CDK6/Cyclin D1 (Homo sapiens, UniProt Q00534); assay: NanoBRET live-cell target engagement, NanoLuc-CDK6/Cyclin D1 in HEK-293; type: binding; conditions: CDK6/D1, read-out: Inhibition at 10µM (%)
Sequence of CDK6/Cyclin D1 (Q00534 whole entry): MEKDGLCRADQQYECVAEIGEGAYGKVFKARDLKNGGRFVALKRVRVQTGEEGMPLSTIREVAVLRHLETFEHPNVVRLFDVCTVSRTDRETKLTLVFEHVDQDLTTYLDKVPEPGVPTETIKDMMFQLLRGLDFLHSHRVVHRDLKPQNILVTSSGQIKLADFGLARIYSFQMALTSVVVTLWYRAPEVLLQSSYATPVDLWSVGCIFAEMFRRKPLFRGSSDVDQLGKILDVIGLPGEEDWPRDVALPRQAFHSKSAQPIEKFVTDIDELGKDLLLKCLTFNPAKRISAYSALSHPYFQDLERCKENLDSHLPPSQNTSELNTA
Sequence of CDK6/Cyclin D1 (P24385 whole entry partner): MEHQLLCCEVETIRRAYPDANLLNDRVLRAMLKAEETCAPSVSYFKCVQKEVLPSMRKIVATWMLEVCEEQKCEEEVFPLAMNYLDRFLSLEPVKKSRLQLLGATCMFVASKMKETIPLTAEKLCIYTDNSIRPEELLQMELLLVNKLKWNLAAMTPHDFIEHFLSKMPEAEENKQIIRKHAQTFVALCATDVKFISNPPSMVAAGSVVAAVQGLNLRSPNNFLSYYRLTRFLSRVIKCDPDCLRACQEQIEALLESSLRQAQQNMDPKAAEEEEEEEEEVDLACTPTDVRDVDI

[3] = target: CDK7 (Homo sapiens, UniProt P50613); assay: NanoBRET live-cell target engagement, NanoLuc-CDK7 in HEK-293; type: binding; conditions: CDK7, read-out: Inhibition at 10µM (%)
Sequence of CDK7 (P50613 whole entry): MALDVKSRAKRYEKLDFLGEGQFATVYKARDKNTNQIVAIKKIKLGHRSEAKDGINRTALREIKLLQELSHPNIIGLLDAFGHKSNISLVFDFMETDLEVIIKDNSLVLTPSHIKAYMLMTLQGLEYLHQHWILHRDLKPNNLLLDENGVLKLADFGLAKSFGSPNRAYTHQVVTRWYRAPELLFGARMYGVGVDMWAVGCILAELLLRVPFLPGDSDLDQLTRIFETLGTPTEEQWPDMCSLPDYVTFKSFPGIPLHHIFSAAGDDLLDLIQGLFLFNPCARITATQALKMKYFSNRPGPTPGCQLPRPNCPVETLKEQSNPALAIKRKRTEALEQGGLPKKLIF

[4] = target: CDK4/Cyclin D1 (Homo sapiens, UniProt P11802); assay: NanoBRET live-cell target engagement, NanoLuc-CDK4/Cyclin D1 in HEK-293; type: binding; conditions: CDK4/D1, read-out: Inhibition at 10µM (%)
Sequence of CDK4/Cyclin D1 (P11802 whole entry): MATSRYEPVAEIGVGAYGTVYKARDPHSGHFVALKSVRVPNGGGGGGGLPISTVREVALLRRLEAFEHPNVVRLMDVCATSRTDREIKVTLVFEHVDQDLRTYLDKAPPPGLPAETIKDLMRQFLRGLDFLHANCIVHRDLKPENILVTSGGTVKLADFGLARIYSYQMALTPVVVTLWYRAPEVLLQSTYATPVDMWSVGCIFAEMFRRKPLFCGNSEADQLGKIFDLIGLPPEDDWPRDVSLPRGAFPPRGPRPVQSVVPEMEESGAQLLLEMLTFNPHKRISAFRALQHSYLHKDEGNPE
Sequence of CDK4/Cyclin D1 (P24385 whole entry partner): as the sequence (P24385 whole entry partner) above

[5] = target: CDK8/Cyclin C (Homo sapiens, UniProt P49336); assay: NanoBRET live-cell target engagement, NanoLuc-CDK8/Cyclin C in HEK-293; type: binding; conditions: CDK8/C, read-out: Inhibition at 10µM (%)
[6] = target: CDK12/Cyclin K (Homo sapiens, UniProt Q9NYV4); assay: NanoBRET live-cell target engagement, CDK12-NanoLuc/Cyclin K in HEK-293; type: binding; conditions: for inhibition at 10 µM: CDK12/K, read-out: Inhibition at 10µM (%)
[7] = target: CDK20/Cyclin H (Homo sapiens, UniProt Q8IZL9); assay: NanoBRET live-cell target engagement, NanoLuc-CDK20/Cyclin H in HEK-293; type: binding; conditions: CDK20/H, read-out: Inhibition at 10µM (%)
[8] = target: CDK19/Cyclin C (Homo sapiens, UniProt Q9BWU1); assay: NanoBRET live-cell target engagement, NanoLuc-CDK19/Cyclin C in HEK-293; conditions: for inhibition at 10 µM: read-out: Inhibition at 10µM (%), CDK19/C
[9] = target: CDK5/CDK5R1 (Homo sapiens, UniProt Q00535); assay: NanoBRET live-cell target engagement, CDK5-NanoLuc/CDK5R1 in HEK-293; type: binding; conditions: CDK5/CDK5R1, read-out: Inhibition at 10µM (%)
[10] = target: CDK3/Cyclin E1 (Homo sapiens, UniProt Q00526); assay: NanoBRET live-cell target engagement, CDK3-NanoLuc/Cyclin E1 in HEK-293; type: binding; conditions: CDK3/E1, read-out: Inhibition at 10µM (%)
Sequence of CDK3/Cyclin E1 (Q00526 whole entry): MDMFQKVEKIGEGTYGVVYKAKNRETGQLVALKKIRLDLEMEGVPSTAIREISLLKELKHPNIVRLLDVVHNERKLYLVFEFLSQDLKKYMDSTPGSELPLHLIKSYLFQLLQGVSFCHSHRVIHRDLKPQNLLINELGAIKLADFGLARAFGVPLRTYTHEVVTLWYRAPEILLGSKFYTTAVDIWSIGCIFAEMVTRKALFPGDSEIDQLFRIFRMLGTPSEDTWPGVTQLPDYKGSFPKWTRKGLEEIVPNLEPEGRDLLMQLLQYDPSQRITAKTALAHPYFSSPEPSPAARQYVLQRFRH
Sequence of CDK3/Cyclin E1 (P24864 whole entry partner): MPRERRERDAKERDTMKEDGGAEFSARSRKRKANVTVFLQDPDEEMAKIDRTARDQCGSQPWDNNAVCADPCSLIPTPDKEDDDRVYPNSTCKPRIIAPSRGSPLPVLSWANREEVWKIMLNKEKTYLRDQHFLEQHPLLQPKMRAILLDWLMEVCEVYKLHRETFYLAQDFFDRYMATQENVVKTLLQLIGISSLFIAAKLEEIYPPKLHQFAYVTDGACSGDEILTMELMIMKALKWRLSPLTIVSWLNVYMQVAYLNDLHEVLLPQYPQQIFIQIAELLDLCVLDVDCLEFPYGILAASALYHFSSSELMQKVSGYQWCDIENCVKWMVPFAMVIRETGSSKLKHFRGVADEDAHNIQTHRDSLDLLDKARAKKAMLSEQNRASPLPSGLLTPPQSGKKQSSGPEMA

[11] = target: CDK9/Cyclin K (Homo sapiens, UniProt P50750); assay: NanoBRET live-cell target engagement, NanoLuc-CDK9/Cyclin K in HEK-293; type: binding; conditions: CDK9/K, read-out: Inhibition at 10µM (%)
Sequence of CDK9/Cyclin K (P50750 whole entry): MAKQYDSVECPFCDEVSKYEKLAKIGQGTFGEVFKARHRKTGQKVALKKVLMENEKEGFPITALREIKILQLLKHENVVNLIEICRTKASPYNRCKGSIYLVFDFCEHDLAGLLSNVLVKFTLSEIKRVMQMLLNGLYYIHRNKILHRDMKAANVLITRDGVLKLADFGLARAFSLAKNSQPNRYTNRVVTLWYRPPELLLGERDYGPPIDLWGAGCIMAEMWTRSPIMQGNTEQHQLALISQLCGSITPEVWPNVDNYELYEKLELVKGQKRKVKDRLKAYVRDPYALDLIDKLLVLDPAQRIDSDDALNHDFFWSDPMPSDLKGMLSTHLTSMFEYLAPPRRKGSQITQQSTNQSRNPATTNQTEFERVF
Sequence of CDK9/Cyclin K (O75909 whole entry partner): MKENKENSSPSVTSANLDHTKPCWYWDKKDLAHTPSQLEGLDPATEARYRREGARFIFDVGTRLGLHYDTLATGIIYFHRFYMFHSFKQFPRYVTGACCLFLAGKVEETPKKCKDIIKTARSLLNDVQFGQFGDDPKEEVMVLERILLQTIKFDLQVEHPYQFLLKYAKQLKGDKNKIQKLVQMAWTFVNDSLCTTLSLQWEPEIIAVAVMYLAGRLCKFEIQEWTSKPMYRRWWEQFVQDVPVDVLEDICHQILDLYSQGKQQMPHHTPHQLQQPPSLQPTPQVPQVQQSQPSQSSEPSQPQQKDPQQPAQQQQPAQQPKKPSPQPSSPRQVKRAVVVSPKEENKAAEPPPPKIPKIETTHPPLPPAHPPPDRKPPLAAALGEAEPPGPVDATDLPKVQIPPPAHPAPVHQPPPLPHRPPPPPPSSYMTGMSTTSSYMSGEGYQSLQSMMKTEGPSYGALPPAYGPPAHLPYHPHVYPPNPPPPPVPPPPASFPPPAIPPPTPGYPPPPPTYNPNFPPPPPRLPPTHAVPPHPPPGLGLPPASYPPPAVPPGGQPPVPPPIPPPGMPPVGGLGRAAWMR

[12] = target: CDK11B/Cyclin L2 (Homo sapiens, UniProt P21127); assay: NanoBRET live-cell target engagement, CDK11B-NanoLuc/Cyclin L2 in HEK-293; type: binding; conditions: CDK11b/L2, read-out: Inhibition at 10µM (%)
[13] = target: CDK13/Cyclin K (Homo sapiens, UniProt Q14004); assay: NanoBRET live-cell target engagement, CDK13-NanoLuc/Cyclin K in HEK-293; type: binding; conditions: for inhibition at 10 µM: CDK13/K, read-out: Inhibition at 10µM (%)
Sequence of CDK13/Cyclin K (O75909 whole entry): as the sequence (O75909 whole entry partner) above
Sequence of CDK13/Cyclin K (Q14004 other isoform, or with tags, fused parts or gaps): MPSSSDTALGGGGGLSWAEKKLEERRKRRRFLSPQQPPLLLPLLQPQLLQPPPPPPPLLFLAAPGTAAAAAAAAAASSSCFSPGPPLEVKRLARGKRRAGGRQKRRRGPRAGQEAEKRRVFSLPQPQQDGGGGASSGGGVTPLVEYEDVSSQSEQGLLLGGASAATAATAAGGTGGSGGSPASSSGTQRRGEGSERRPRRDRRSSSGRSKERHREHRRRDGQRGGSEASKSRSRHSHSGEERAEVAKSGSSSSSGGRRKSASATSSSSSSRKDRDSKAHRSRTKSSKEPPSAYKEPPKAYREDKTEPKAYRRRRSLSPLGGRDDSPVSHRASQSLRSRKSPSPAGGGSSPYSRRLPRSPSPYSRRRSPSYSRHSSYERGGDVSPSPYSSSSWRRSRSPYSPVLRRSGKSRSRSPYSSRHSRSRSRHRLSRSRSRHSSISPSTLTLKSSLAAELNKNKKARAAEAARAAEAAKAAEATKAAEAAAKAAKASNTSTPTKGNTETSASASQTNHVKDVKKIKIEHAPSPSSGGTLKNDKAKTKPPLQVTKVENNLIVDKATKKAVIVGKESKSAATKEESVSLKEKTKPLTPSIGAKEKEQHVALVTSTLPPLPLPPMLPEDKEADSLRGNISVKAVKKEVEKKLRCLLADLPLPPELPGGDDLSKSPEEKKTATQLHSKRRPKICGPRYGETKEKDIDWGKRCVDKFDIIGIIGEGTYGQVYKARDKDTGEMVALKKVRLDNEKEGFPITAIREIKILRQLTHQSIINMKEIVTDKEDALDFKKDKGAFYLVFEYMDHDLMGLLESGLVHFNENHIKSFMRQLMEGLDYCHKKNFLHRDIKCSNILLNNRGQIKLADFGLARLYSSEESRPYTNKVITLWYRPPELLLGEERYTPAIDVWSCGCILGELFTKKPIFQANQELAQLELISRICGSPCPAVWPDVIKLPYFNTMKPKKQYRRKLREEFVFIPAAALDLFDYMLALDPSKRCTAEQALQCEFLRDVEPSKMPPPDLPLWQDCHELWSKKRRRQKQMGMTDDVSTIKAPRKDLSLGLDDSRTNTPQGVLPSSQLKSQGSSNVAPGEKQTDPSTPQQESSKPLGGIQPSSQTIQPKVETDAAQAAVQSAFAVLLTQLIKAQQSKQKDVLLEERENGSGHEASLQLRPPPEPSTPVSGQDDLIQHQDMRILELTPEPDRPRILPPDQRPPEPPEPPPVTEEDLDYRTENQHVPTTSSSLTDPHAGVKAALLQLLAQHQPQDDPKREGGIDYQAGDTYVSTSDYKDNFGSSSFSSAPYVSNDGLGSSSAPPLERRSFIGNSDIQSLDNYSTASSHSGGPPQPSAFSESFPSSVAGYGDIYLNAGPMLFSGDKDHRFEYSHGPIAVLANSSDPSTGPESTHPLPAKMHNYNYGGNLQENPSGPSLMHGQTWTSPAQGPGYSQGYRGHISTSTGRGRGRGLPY

[14] = target: CDK2/Cyclin E1 (Homo sapiens, UniProt P24941); assay: NanoBRET live-cell target engagement, CDK2-NanoLuc/Cyclin E1 in HEK-293; type: binding; conditions: CDK2/E1, read-out: Inhibition at 10µM (%)
[15] = target: CDK10/Cyclin L2 (Homo sapiens, UniProt Q15131); assay: NanoBRET live-cell target engagement, CDK10-NanoLuc/Cyclin L2 in HEK-293; conditions: read-out: Inhibition at 10µM (%), CDK10/L2

Sequence of CDK1/Cyclin E1 (P06493 whole entry): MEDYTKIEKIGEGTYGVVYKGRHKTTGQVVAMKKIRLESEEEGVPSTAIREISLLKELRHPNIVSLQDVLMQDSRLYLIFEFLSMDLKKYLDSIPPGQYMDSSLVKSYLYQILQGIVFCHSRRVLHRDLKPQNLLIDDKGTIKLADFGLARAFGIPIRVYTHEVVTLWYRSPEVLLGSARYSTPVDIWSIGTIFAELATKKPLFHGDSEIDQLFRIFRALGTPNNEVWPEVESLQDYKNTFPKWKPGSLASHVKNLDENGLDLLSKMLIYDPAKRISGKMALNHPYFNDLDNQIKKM
Sequence of CDK1/Cyclin E1 (P24864 whole entry partner): as the sequence (P24864 whole entry partner) above

With `CN1CC[C@H](c2c(O)cc(O)c3c(=O)cc(-c4ccccc4Cl)oc23)[C@H](O)C1` [Flavopiridol] as the compound, how does the inhibition at 10 µM ([1]; average) read?
Its inhibition at 10 µM is 72.2%.

What about the inhibition at 10 µM ([1]; experiment 1) of the same compound?
The inhibition at 10 µM was 65.7%.

What about the inhibition at 10 µM ([1]; experiment 2) of the same compound?
The inhibition at 10 µM was 78.8%.

What about the inhibition at 10 µM ([2]; average) of the same compound?
Its inhibition at 10 µM is 86.6%.

And the inhibition at 10 µM ([2]; experiment 1)?
The inhibition at 10 µM was 83.3%.

What about the inhibition at 10 µM ([2]; experiment 2) of the same compound?
Its inhibition at 10 µM is 89.9%.

What about the inhibition at 10 µM ([3]; average) of the same compound?
The inhibition at 10 µM was 72.3%.

And the inhibition at 10 µM ([3]; experiment 1)?
Its inhibition at 10 µM is 65.8%.

And the inhibition at 10 µM ([3]; experiment 2)?
The inhibition at 10 µM was 78.8%.

What about the inhibition at 10 µM ([4]; average) of the same compound?
The inhibition at 10 µM was 90.8%.

What about the inhibition at 10 µM ([4]; experiment 1) of the same compound?
The inhibition at 10 µM was 88.6%.

What about the inhibition at 10 µM ([4]; experiment 2) of the same compound?
Its inhibition at 10 µM is 93%.

And the inhibition at 10 µM ([5]; average)?
Its inhibition at 10 µM is 95.7%.

And the inhibition at 10 µM ([5]; experiment 1)?
The inhibition at 10 µM was 96.6%.

And the inhibition at 10 µM ([5]; experiment 2)?
Its inhibition at 10 µM is 94.9%.

What about the inhibition at 10 µM ([6]; average) of the same compound?
Its inhibition at 10 µM is 48.6%.

And the inhibition at 10 µM ([6]; experiment 1)?
Its inhibition at 10 µM is 51.7%.

What about the inhibition at 10 µM ([6]; experiment 2) of the same compound?
The inhibition at 10 µM was 45.6%.

What about the receptor occupancy at 10 µM ([6]; primary screen, live HEK-293, read-out: CDK12 occupancy at 10 µM) of the same compound?
Its receptor occupancy at 10 µM is about 50%.

What about the inhibition at 10 µM ([7]; experiment 1) of the same compound?
The inhibition at 10 µM was 6.3%.

And the inhibition at 10 µM ([7]; experiment 2)?
Its inhibition at 10 µM is 6.5%.

What about the IC50 ([8]; IC50 (nM), CDK19/C, experiment 1) of the same compound?
Its IC50 is 19 nM.

And the IC50 ([8]; IC50 (nM), CDK19/C, experiment 2)?
Its IC50 is 18 nM.

What about the IC50 ([8]; IC50 (nM), CDK19/Y (so in the source), average (± SEM where n=3)) of the same compound?
The IC50 was 19 nM.

And the IC50 ([8]; IC50 for CDK/cyclin complexes, CDK19/C, live HEK-293, 2 h, mean ± S.E.M. (n=3) or mean (n=2))?
The IC50 was 19 nM.

And the inhibition at 10 µM ([8]; average)?
The inhibition at 10 µM was 95.8%.

And the inhibition at 10 µM ([8]; experiment 1)?
Its inhibition at 10 µM is 98%.

What about the inhibition at 10 µM ([8]; experiment 2) of the same compound?
Its inhibition at 10 µM is 93.5%.

And the inhibition at 10 µM ([9]; average)?
The inhibition at 10 µM was 83.1%.

What about the inhibition at 10 µM ([9]; experiment 1) of the same compound?
Its inhibition at 10 µM is 85%.

And the inhibition at 10 µM ([9]; experiment 2)?
The inhibition at 10 µM was 81.1%.

And the inhibition at 10 µM ([10]; average)?
The inhibition at 10 µM was 80.6%.

What about the inhibition at 10 µM ([10]; experiment 1) of the same compound?
The inhibition at 10 µM was 78%.

What about the inhibition at 10 µM ([10]; experiment 2) of the same compound?
Its inhibition at 10 µM is 83.3%.

What about the inhibition at 10 µM ([11]; average) of the same compound?
Its inhibition at 10 µM is 97.8%.

What about the inhibition at 10 µM ([11]; experiment 1) of the same compound?
The inhibition at 10 µM was 97.5%.

And the inhibition at 10 µM ([11]; experiment 2)?
The inhibition at 10 µM was 98%.

And the inhibition at 10 µM ([12]; average)?
The inhibition at 10 µM was 47.4%.

And the inhibition at 10 µM ([12]; experiment 1)?
The inhibition at 10 µM was 40.9%.

What about the inhibition at 10 µM ([12]; experiment 2) of the same compound?
The inhibition at 10 µM was 54%.

And the inhibition at 10 µM ([13]; average)?
Its inhibition at 10 µM is 28%.

And the inhibition at 10 µM ([13]; experiment 1)?
The inhibition at 10 µM was 33.4%.

And the inhibition at 10 µM ([13]; experiment 2)?
The inhibition at 10 µM was 22.5%.

And the receptor occupancy at 10 µM ([13]; primary screen, live HEK-293)?
Its receptor occupancy at 10 µM is about 50%.

What about the inhibition at 10 µM ([14]; average) of the same compound?
Its inhibition at 10 µM is 75%.

And the inhibition at 10 µM ([14]; experiment 1)?
The inhibition at 10 µM was 74.5%.

What about the inhibition at 10 µM ([14]; experiment 2) of the same compound?
The inhibition at 10 µM was 75.4%.

What about the inhibition at 10 µM ([15]; average) of the same compound?
The inhibition at 10 µM was 38.5%.

What about the inhibition at 10 µM ([15]; experiment 1) of the same compound?
Its inhibition at 10 µM is 45.2%.

And the inhibition at 10 µM ([15]; experiment 2)?
The inhibition at 10 µM was 31.9%.
